Reference: PubChem BioAssay (NCI)
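Protocol summary: plate cells (96-well), add compound at 5 concentrations, incubate 48 h, interpolate endpoints linearly. The concentration for full growth arrest is given as TGI.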

Columns and labels:
Assay in all cases: NCI tumour cell line growth inhibition, 48 h
SK-MEL-2 melanoma = test system: SK-MEL-2 melanoma
SK-MEL-5 melanoma = test system: SK-MEL-5 melanoma
LXFL 529 NSCLC = test system: LXFL 529 NSCLC
HCT-15 colon = test system: HCT-15 colon
SF-539 CNS = test system: SF-539 CNS
KM20L2 colon = test system: KM20L2 colon
CCRF-CEM leukemia = test system: CCRF-CEM leukemia
M19-MEL melanoma = test system: M19-MEL melanoma
UACC-257 melanoma = test system: UACC-257 melanoma
HL-60(TB) leukemia = test system: HL-60(TB) leukemia
HOP-92 NSCLC = test system: HOP-92 NSCLC
MALME-3M melanoma = test system: MALME-3M melanoma
HT29 colon = test system: HT29 colon
TK-10 renal = test system: TK-10 renal
RXF 393 renal = test system: RXF 393 renal
UO-31 renal = test system: UO-31 renal
K-562 leukemia = test system: K-562 leukemia
U251 CNS = test system: U251 CNS
SNB-19 CNS = test system: SNB-19 CNS
SNB-78 CNS = test system: SNB-78 CNS
HOP-18 NSCLC = test system: HOP-18 NSCLC
HCC-2998 colon = test system: HCC-2998 colon
SF-295 CNS = test system: SF-295 CNS
IGROV1 ovarian = test system: IGROV1 ovarian
SK-OV-3 ovarian = test system: SK-OV-3 ovarian
SNB-75 CNS = test system: SNB-75 CNS
SF-268 CNS = test system: SF-268 CNS
OVCAR-5 ovarian = test system: OVCAR-5 ovarian
LOX IMVI melanoma = test system: LOX IMVI melanoma
UACC-62 melanoma = test system: UACC-62 melanoma
ACHN renal = test system: ACHN renal
SK-MEL-28 melanoma = test system: SK-MEL-28 melanoma
COLO 205 colon = test system: COLO 205 colon
HCT-116 colon = test system: HCT-116 colon
NCI-H522 lung = test system: NCI-H522 lung
NCI-H460 lung = test system: NCI-H460 lung
MOLT-4 leukemia = test system: MOLT-4 leukemia
DMS 114 small cell lung = test system: DMS 114 small cell lung
A498 renal = test system: A498 renal
OVCAR-8 ovarian = test system: OVCAR-8 ovarian
SR leukemia = test system: SR leukemia
KM12 colon = test system: KM12 colon
RXF-631 renal = test system: RXF-631 renal
NCI-H23 lung = test system: NCI-H23 lung
EKVX NSCLC = test system: EKVX NSCLC
OVCAR-3 ovarian = test system: OVCAR-3 ovarian
SN12C renal = test system: SN12C renal
M14 melanoma = test system: M14 melanoma
XF 498 CNS = test system: XF 498 CNS
A549 NSCLC = test system: A549 NSCLC
DLD-1 colon = test system: DLD-1 colon
SW-620 colon = test system: SW-620 colon
DMS 273 small cell lung = test system: DMS 273 small cell lung
MCF7 breast = test system: MCF7 breast
RPMI-8226 leukemia = test system: RPMI-8226 leukemia
P388/ADR leukemia = test system: P388/ADR leukemia
CAKI-1 renal = test system: CAKI-1 renal
NCI-H226 lung = test system: NCI-H226 lung
P388 leukemia = test system: P388 leukemia
HOP-62 NSCLC = test system: HOP-62 NSCLC
OVCAR-4 ovarian = test system: OVCAR-4 ovarian
SN12K1 renal = test system: SN12K1 renal
NCI/ADR-RES ovarian = test system: NCI/ADR-RES ovarian

Measured: TGI

CC(C)(C)CI
53.9 µM: M19-MEL melanoma
71.3 µM: M14 melanoma
34.8 µM: DMS 273 small cell lung
79.4 µM: SNB-78 CNS
64.6 µM: KM12 colon
37.6 µM: SK-MEL-2 melanoma
32.4 µM: SN12C renal
51.6 µM: UACC-257 melanoma
33.7 µM: RXF 393 renal
81.2 µM: NCI-H460 lung
33.4 µM: LOX IMVI melanoma
61.4 µM: HOP-92 NSCLC
48.3 µM: DMS 114 small cell lung
66.4 µM: U251 CNS
58.5 µM: ACHN renal
47 µM: COLO 205 colon
89.1 µM: SNB-19 CNS
50.4 µM: HL-60(TB) leukemia
76.7 µM: SR leukemia
76.9 µM: MOLT-4 leukemia
45.2 µM: NCI-H522 lung
46.6 µM: MALME-3M melanoma
33.9 µM: SF-295 CNS
37.2 µM: HCC-2998 colon
30.9 µM: SK-MEL-5 melanoma
35.4 µM: OVCAR-3 ovarian
73.1 µM: A549 NSCLC
58.4 µM: K-562 leukemia
39.7 µM: HCT-116 colon
67.6 µM: SNB-75 CNS
36.1 µM: SW-620 colon
50.8 µM: CCRF-CEM leukemia
> 10 µM: HT29 colon | UO-31 renal | HOP-18 NSCLC | OVCAR-8 ovarian
34.9 µM: XF 498 CNS
not listed: MCF7 breast | RPMI-8226 leukemia | P388/ADR leukemia | CAKI-1 renal | NCI-H226 lung | P388 leukemia | HOP-62 NSCLC | OVCAR-4 ovarian | SN12K1 renal | NCI/ADR-RES ovarian
> 100 µM: all other assays above

CC1OC(CO)(n2cnc3c(N)ncnc32)C(O)C1O (stereo not given)
not listed: LXFL 529 NSCLC | TK-10 renal | ACHN renal | SR leukemia | RXF-631 renal | M14 melanoma
> 100 µM: all other assays above
